In assay [1] the test system is Mycobacterium avium. The experiment in a line: Antimycobacterial activity against Mycobacterium avium 2447 Smt infected in BALB/c mice BMDM assessed as bacterial growth inhibition at 10 uM after 5 days. Format: functional, organism-based.
Assay [2] relates to Mycobacterium avium. The assay can be described thus: Antimycobacterial activity against Mycobacterium avium 2447 Smt infected in BALB/c mice BMDM assessed as bacterial growth inhibition upto 20 uM after 5 days. Type of assay: functional, organism-based.

This note sets out measurements from ChEMBL document CHEMBL3779895, “Antimycobacterial activity of rhodamine 3,4-HPO iron chelators against Mycobacterium avium: analysis of the contribution of functional groups and of chelator's combination with ethambutol” (Medchemcomm, 2015).

Calls of active or inactive are those of the source. The calls are words filed in the database; no cut-off is given here.

In the case of `Cc1cc(O)c(O)c(CNC(=O)CCC(CCC(=O)NCc2c(O)c(O)cc(C)[n+]2C)(CCC(=O)NCc2c(O)c(O)cc(C)[n+]2C)NC(=O)CCNC(=S)Nc2ccc(C(=O)O)c(-c3c4ccc(=[N+](C)C)cc-4oc4cc(N(C)C)ccc34)c2)[n+]1C`, the inhibition result with Mycobacterium avium [1] and in the assay on Mycobacterium avium [2] was “Active” in each case.
